# Measured values reported in patent US4801614A, “Process for using endogenous enkephalins and endorphins to inhibit growth of tumerous cells” (TNI Pharmaceuticals, Inc., priority 1987, dated 1989).
# Like-named read-outs stand apart in the source and are kept apart here.
# System: L1210 tumor cells
# Settings: 30 mg/Kg s.c. methionine-enkephalin where combined
# From the text: Groups of BDF1 female mouse strain (16-20 gms) were inoculated with L1210 (leukemia) tumor cells (1×10^4, 1×10^3, or 1×10^2 cells) and observed for survival. The L1210 line of tumor cells was maintained in DBA/2 host mice. Ascitic fluid from the DBA/2 mice was used to inoculate the BDF1 mice transferred in RPMI 1640 buffer at pH 8-9).
# In order to test for any synergistic effect of using an endogenous enkephalin with a known chemo-therapeutic agent, a study involving the inoculation of groups of mice with massive doses (1×10^6 ) of L1210 tumor cells was performed in a manner analogous to the previous examples transferred in RPMI 1640 at pH 7.
compound,measurement,setting,value
"N.N.[Cl][Pt][Cl] [Cis-platin, cis-platin]",cumulative dead,"2 mg/Kg cis-platin, day 9",3/20
same,cumulative dead,"2 mg/Kg cis-platin, day 10",13/20
same,cumulative dead,"2 mg/Kg cis-platin, day 11",14/20
same,cumulative dead,"2 mg/Kg cis-platin, day 12",15/20
same,cumulative dead,"2 mg/Kg cis-platin, day 13",17/20
same,cumulative dead,"2 mg/Kg cis-platin, day 14",19/20
same,Median Day of Death (ED50),"2 mg/Kg cis-platin, saline control 9 Days",10 days
same,cumulative dead,"4 mg/Kg cis-platin, day 11",10/20
same,cumulative dead,"4 mg/Kg cis-platin, day 12",15/20
same,cumulative dead,"4 mg/Kg cis-platin, day 13",19/20
same,cumulative dead,"4 mg/Kg cis-platin, day 15",20/20
same,Median Day of Death (ED50),"4 mg/Kg cis-platin, saline control 8 Days",10 days
same,Median Day of Death (ED50),"8 mg/Kg cis-platin, saline control 8 days",12 days
same,cumulative dead,"single dose 8 mg/Kg cis-platin, day 9",2/20
same,cumulative dead,"single dose 8 mg/Kg cis-platin, day 12",4/20
same,cumulative dead,"single dose 8 mg/Kg cis-platin, day 13",7/20
same,cumulative dead,"single dose 8 mg/Kg cis-platin, day 14",12/20
same,cumulative dead,"single dose 8 mg/Kg cis-platin, day 15",16/20
same,cumulative dead,"single dose 8 mg/Kg cis-platin, day 16",18/20
same,cumulative dead,"single dose 8 mg/Kg cis-platin, day 18",19/20
same,cumulative dead,"single dose 8 mg/Kg cis-platin, day 20",20/20
